# Assay results published in patent US4007167A, “Antibiotic BM123 and production thereof” (American Cyanamid Company, priority 1975, dated 1977).
# Key:
# [1] = tested on: Mycobacterium smegmatis ATCC 607; assay: in vitro MIC, standard agar dilution procedure; type: cell-based; conditions: for MIC: Mycolicibacterium smegmatis, ATCC607, read-out: Minimal Inhibitory Concentration
# [2] = tested on: Staphylococcus aureus Rose ATCC 14154; assay: in vitro MIC, standard agar dilution procedure; type: cell-based; conditions: for MIC: ATCC14154, read-out: Minimal Inhibitory Concentration
# [3] = tested on: Staphylococcus aureus Smith ATCC 13709; assay: in vitro MIC, standard agar dilution procedure; type: cell-based; conditions: for MIC: ATCC13709, read-out: Minimal Inhibitory Concentration
# [4] = tested on: Staphylococcus aureus 4050B122-3; assay: in vitro MIC, standard agar dilution procedure; type: cell-based; conditions: for MIC: 4050B1223, read-out: Minimal Inhibitory Concentration
# [5] = tested on: Bacillus cereus ATCC 9634; assay: in vitro MIC, standard agar dilution procedure; type: cell-based; conditions: for MIC: ATCC9634, read-out: Minimal Inhibitory Concentration
# [6] = tested on: Bacillus subtilis No. 17 Stansly R-78; assay: in vitro MIC, standard agar dilution procedure; type: cell-based; conditions: for MIC: read-out: Minimal Inhibitory Concentration
# [7] = tested on: Bacillus subtilis No. 18 Stansly R-76; assay: in vitro MIC, standard agar dilution procedure; type: cell-based; conditions: for MIC: read-out: Minimal Inhibitory Concentration
# [8] = tested on: Corynebacterium xerosis NRRL B-1397; assay: in vitro MIC, standard agar dilution procedure; type: cell-based; conditions: for MIC: NRRLB1397, read-out: Minimal Inhibitory Concentration
# [9] = tested on: Streptococcus faecalis GK; assay: in vitro MIC, standard agar dilution procedure; type: cell-based; conditions: for MIC: Enterococcus faecalis, read-out: Minimal Inhibitory Concentration
# [10] = tested on: Sarcina lutea ATCC 9341; assay: in vitro MIC, standard agar dilution procedure; type: cell-based; conditions: for MIC: Micrococcus luteus, ATCC9341, read-out: Minimal Inhibitory Concentration
# [11] = tested on: Enterobacter aerogenes 75; assay: in vitro MIC, standard agar dilution procedure; type: cell-based; conditions: for MIC: Klebsiella aerogenes, read-out: Minimal Inhibitory Concentration
# [12] = tested on: Escherichia coli U-311; assay: in vitro MIC, standard agar dilution procedure; type: cell-based; conditions: for MIC: U311, read-out: Minimal Inhibitory Concentration
# [13] = tested on: Escherichia coli No. 29; assay: in vitro MIC, standard agar dilution procedure; type: cell-based; conditions: for MIC: read-out: Minimal Inhibitory Concentration
# [14] = tested on: Klebsiella pneumoniae AD; assay: in vitro MIC, standard agar dilution procedure; type: cell-based; conditions: for MIC: read-out: Minimal Inhibitory Concentration
# [15] = tested on: Proteus mirabilis ATCC 4671; assay: in vitro MIC, standard agar dilution procedure; type: cell-based; conditions: for MIC: ATCC4671, read-out: Minimal Inhibitory Concentration
# [16] = tested on: Proteus morganii ATCC 8019; assay: in vitro MIC, standard agar dilution procedure; type: cell-based; conditions: for MIC: Morganella morganii, ATCC8019, read-out: Minimal Inhibitory Concentration
# [17] = tested on: Proteus vulgaris ATCC 9484; assay: in vitro MIC, standard agar dilution procedure; type: cell-based; conditions: for MIC: ATCC9484, read-out: Minimal Inhibitory Concentration
# [18] = tested on: Pseudomonas aeruginosa ATCC 10145; assay: in vitro MIC, standard agar dilution procedure; type: cell-based; conditions: for MIC: ATCC10145, read-out: Minimal Inhibitory Concentration
# [19] = tested on: Pseudomonas aeruginosa 1A7; assay: in vitro MIC, standard agar dilution procedure; type: cell-based; conditions: for MIC: read-out: Minimal Inhibitory Concentration
# [20] = tested on: Salmonella gallinarum 605; assay: in vitro MIC, standard agar dilution procedure; type: cell-based; conditions: for MIC: Salmonella enterica, read-out: Minimal Inhibitory Concentration
# [21] = tested on: Salmonella typhosa ATCC 6539; assay: in vitro MIC, standard agar dilution procedure; type: cell-based; conditions: for MIC: Salmonella enterica, read-out: Minimal Inhibitory Concentration; for Minimal Inhibitory Concentration: Salmonella typhosa ATCC 6539, agar dilution
# [22] = tested on: Shigella shiga; assay: microbe, parasite or virus in culture; type: cell-based; conditions: for MIC: Shigella, read-out: Minimal Inhibitory Concentration; for Minimal Inhibitory Concentration: Shigella shiga, agar dilution
# [23] = tested on: Bacillus globigii; assay: in vitro MIC, standard agar dilution procedure; type: cell-based
# [24] = tested on: Escherichia coli US311; assay: control of systemic lethal infection in mice, single subcutaneous dose; type: in vivo, mice (Carworth Farms CF-1)
# Protocol: (§1) These new substances show high in vivo antibacterial activity in mice against Proteus mirabilis ATCC 4671, Klebsiella pneumoniae AD, and Escherichia coli US311 when administered by a single subcutaneous dose to groups of Carworth Farms CF-1 mice, weight about 20 gm., infected intraperitoneally with a lethal dose of these bacteria in 10^-^1.6 , 10^-^4 and 10^-^3 trypticase soy broth TSP dilutions, respectively, of a 5 hour TSP blood culture.
# (§2) Table VII, below, illustrates the in vivo antibacterial activity of BM123α, BM123β, and BM123γ against these three bacteria.
# [25] = tested on: Klebsiella pneumoniae AD; assay: as above; type: in vivo, mice (Carworth Farms CF-1)
# Protocol: as §1, §2
# [26] = tested on: Proteus mirabilis ATCC 4671; assay: as above; type: in vivo, mice (Carworth Farms CF-1)
# Protocol: as §1, §2
# [27] = tested on: a variety of organisms; assay: in vivo antibacterial activity (general statement); conditions: in words
# [28] = single subcutaneous dose 32 mg./kg.
# [29] = single subcutaneous dose 128 mg./kg.
# [30] = single subcutaneous dose 512 mg./kg.
molecule,measurement,setting,value
"CC1OC(Oc2ccc(/C=C/C(=O)NCCCNCCCCN)cc2)C(NC(=N)N)C(O)C1NC(=O)NC1OCC(OC2OCC(O)C3NC(=O)N(C(N)=O)C23)C(O)C1NC(N)=O (single isomer, unassigned) [BM123γ1]",MIC,[1],0.1 µg/mL
same,MIC,[2],0.25 µg/mL
same,MIC,[3],0.1 µg/mL
same,MIC,[4],0.25 µg/mL
same,MIC,[5],0.25 µg/mL
same,MIC,[6],0.1 µg/mL
same,MIC,[7],0.25 µg/mL
same,MIC,[8],0.25 µg/mL
same,MIC,[9],2.5 µg/mL
same,MIC,[10],0.5 µg/mL
same,MIC,[11],0.1 µg/mL
same,MIC,[12],0.1 µg/mL
same,MIC,[13],0.05 µg/mL
same,MIC,[14],0.05 µg/mL
same,MIC,[15],0.25 µg/mL
same,MIC,[16],0.1 µg/mL
same,MIC,[17],0.1 µg/mL
same,MIC,[18],2.5 µg/mL
same,MIC,[19],5 µg/mL
same,MIC,[20],0.1 µg/mL
same,MIC,[21],0.05 µg/mL
same,MIC,[22],0.25 µg/mL
"CC1OC(Oc2ccc(/C=C/C(=O)NCCCNCCCCN)cc2)C(NC(=N)N)C(O)C1NC(=O)NC1OCC(OC2OCC3OC(=O)NC3C2NC(N)=O)C(O)C1NC(N)=O (single isomer, unassigned) [BM123γ2]",MIC,[1],0.25 µg/mL
same,MIC,[2],0.25 µg/mL
same,MIC,[3],0.25 µg/mL
same,MIC,[4],0.5 µg/mL
same,MIC,[5],0.5 µg/mL
same,MIC,[6],0.1 µg/mL
same,MIC,[7],0.25 µg/mL
same,MIC,[8],0.25 µg/mL
same,MIC,[9],2.5 µg/mL
same,MIC,[10],1 µg/mL
same,MIC,[11],0.1 µg/mL
same,MIC,[12],0.1 µg/mL
same,MIC,[13],0.1 µg/mL
same,MIC,[14],0.05 µg/mL
same,MIC,[15],0.25 µg/mL
same,MIC,[16],0.1 µg/mL
same,MIC,[17],0.1 µg/mL
same,MIC,[18],5 µg/mL
same,MIC,[19],10 µg/mL
same,MIC,[20],0.1 µg/mL
same,MIC,[21],0.05 µg/mL
same,MIC,[22],0.25 µg/mL
N=C(N)NCCCC(N)C(=O)NC1C(OC2C(CO)OC(OC3C(O)C(NC(=O)C4CCC(=N)N4)C(O)C(O)C3OC(N)=O)C(O)C2O)OC(CO)C(O)C1O (stereo not drawn) [BM123α],Minimal Inhibitory Concentration,[1],5 µg/mL
same,Minimal Inhibitory Concentration,[2],100 µg/mL
same,Minimal Inhibitory Concentration,[3],20 µg/mL
same,Minimal Inhibitory Concentration,[4],100 µg/mL
same,Minimal Inhibitory Concentration,[5],100 µg/mL
same,Minimal Inhibitory Concentration,[23],10 µg/mL
same,Minimal Inhibitory Concentration,[6],10 µg/mL
same,Minimal Inhibitory Concentration,[7],20 µg/mL
same,Minimal Inhibitory Concentration,[8],10 µg/mL
same,Minimal Inhibitory Concentration,[9],> 200 µg/mL
same,Minimal Inhibitory Concentration,[10],50 µg/mL
same,Minimal Inhibitory Concentration,[11],10 µg/mL
same,Minimal Inhibitory Concentration,[12],5 µg/mL
same,Minimal Inhibitory Concentration,[13],5 µg/mL
same,Minimal Inhibitory Concentration,[14],5 µg/mL
same,Minimal Inhibitory Concentration,[15],50 µg/mL
same,Minimal Inhibitory Concentration,[16],5 µg/mL
same,Minimal Inhibitory Concentration,[17],5 µg/mL
same,Minimal Inhibitory Concentration,[18],200 µg/mL
same,Minimal Inhibitory Concentration,[19],> 200 µg/mL
same,Minimal Inhibitory Concentration,[20],5 µg/mL
same,Minimal Inhibitory Concentration,[21],5 µg/mL
same,Minimal Inhibitory Concentration,[22],50 µg/mL
same,"Alive/Total Mice Tested, 7 Days After Infection",[24]; [28],1/5
same,"Alive/Total Mice Tested, 7 Days After Infection",[24]; [29],5/5
same,"Alive/Total Mice Tested, 7 Days After Infection",[24]; [30],5/5
same,"Alive/Total Mice Tested, 7 Days After Infection",[25]; [28],0/5
same,"Alive/Total Mice Tested, 7 Days After Infection",[25]; [29],0/5
same,"Alive/Total Mice Tested, 7 Days After Infection",[25]; [30],4/5
same,"Alive/Total Mice Tested, 7 Days After Infection",[26]; single subcutaneous dose 8 mg./kg.,0/5
same,"Alive/Total Mice Tested, 7 Days After Infection",[26]; [28],2/5
same,"Alive/Total Mice Tested, 7 Days After Infection",[26]; [29],3/5
same,"Alive/Total Mice Tested, 7 Days After Infection",[26]; [30],5/5
same,in vivo activity against a variety of organisms,[27],active in vivo
CC1OC(Oc2ccc(/C=C/C(=O)NCCCNCCCCN)cc2)C(NC(=N)N)C(O)C1NC(=O)NC1OCC(OC2OCC(O)C(N)C2NC(N)=O)C(O)C1NC(N)=O (stereo not drawn) [BM123β1],Minimal Inhibitory Concentration,[1],2.5 µg/mL
same,Minimal Inhibitory Concentration,[2],1 µg/mL
same,Minimal Inhibitory Concentration,[3],0.5 µg/mL
same,Minimal Inhibitory Concentration,[4],2.5 µg/mL
same,Minimal Inhibitory Concentration,[5],2.5 µg/mL
same,Minimal Inhibitory Concentration,[23],0.25 µg/mL
same,Minimal Inhibitory Concentration,[6],0.25 µg/mL
same,Minimal Inhibitory Concentration,[7],2.5 µg/mL
same,Minimal Inhibitory Concentration,[8],2.5 µg/mL
same,Minimal Inhibitory Concentration,[9],> 100 µg/mL
same,Minimal Inhibitory Concentration,[10],2.5 µg/mL
same,Minimal Inhibitory Concentration,[11],0.5 µg/mL
same,Minimal Inhibitory Concentration,[12],0.25 µg/mL
same,Minimal Inhibitory Concentration,[13],0.25 µg/mL
same,Minimal Inhibitory Concentration,[14],0.25 µg/mL
same,Minimal Inhibitory Concentration,[15],0.5 µg/mL
same,Minimal Inhibitory Concentration,[16],0.5 µg/mL
same,Minimal Inhibitory Concentration,[17],0.25 µg/mL
same,Minimal Inhibitory Concentration,[18],25 µg/mL
same,Minimal Inhibitory Concentration,[19],100 µg/mL
same,Minimal Inhibitory Concentration,[20],0.5 µg/mL
same,Minimal Inhibitory Concentration,[21],0.25 µg/mL
same,Minimal Inhibitory Concentration,[22],2.5 µg/mL
Gentamicin sulfate [reference compound],Minimal Inhibitory Concentration,[1],0.1 µg/mL
same,Minimal Inhibitory Concentration,[2],0.1 µg/mL
same,Minimal Inhibitory Concentration,[3],0.05 µg/mL
same,Minimal Inhibitory Concentration,[4],0.25 µg/mL
same,Minimal Inhibitory Concentration,[5],0.25 µg/mL
same,Minimal Inhibitory Concentration,[23],0.025 µg/mL
same,Minimal Inhibitory Concentration,[6],0.025 µg/mL
same,Minimal Inhibitory Concentration,[7],0.1 µg/mL
same,Minimal Inhibitory Concentration,[8],0.025 µg/mL
same,Minimal Inhibitory Concentration,[9],2.5 µg/mL
same,Minimal Inhibitory Concentration,[10],0.25 µg/mL
same,Minimal Inhibitory Concentration,[11],0.1 µg/mL
same,Minimal Inhibitory Concentration,[12],0.05 µg/mL
same,Minimal Inhibitory Concentration,[13],0.05 µg/mL
same,Minimal Inhibitory Concentration,[14],0.05 µg/mL
same,Minimal Inhibitory Concentration,[15],0.25 µg/mL
same,Minimal Inhibitory Concentration,[16],0.1 µg/mL
same,Minimal Inhibitory Concentration,[17],0.1 µg/mL
same,Minimal Inhibitory Concentration,[18],2.5 µg/mL
same,Minimal Inhibitory Concentration,[19],5 µg/mL
same,Minimal Inhibitory Concentration,[20],0.05 µg/mL
same,Minimal Inhibitory Concentration,[21],0.1 µg/mL
same,Minimal Inhibitory Concentration,[22],0.25 µg/mL
